Results reported in ChEMBL document CHEMBL2062517, “Design, synthesis, and antiviral activity of entry inhibitors that target the CD4-binding site of HIV-1” (J Med Chem, 2012).

Experiments:
Format in all cases: cell-based
MT2 [1] = test: (§1) Cytotoxicity against human MT2 cells after 4 days by XTT assay; conditions: mt2, 96 h
[2] = Inhibition of X4-tropic HIV1 HXB2 gp120-mediated entry into human TZM-b1 cells expressing CD4,CXCR4,CCR5,luciferase and beta-galactosidase after 3 days by single cycle neutralization assay; conditions: Human immunodeficiency virus 1, HXB2, TZM-b1, 72 h
[3] = Cytotoxicity against human TZM-b1 cells after 3 days by XTT assay; conditions: for CC50 at 72 h: TZM-b1 cells; for CC50: tzm-b1, 72 h
[4] = Inhibition of X4-tropic HIV1 3B gp120-mediated entry into human MT2 cells assessed as Inhibition of p24 production incubated overnight followed by compound wash-out measured after 4 days post-infection by multi-cycle neutralization assay; conditions: Human immunodeficiency virus 1, 3B, MT2, 96 h
[5] = Cytotoxicity against human TZM-b1 cells at >77.8 uM after 3 days by XTT assay; conditions: tzm-b1, 72 h
[6] = as §1; conditions: MT2 cells
[7] = Cytotoxicity against human TZM-b1 cells at >84 uM after 3 days by XTT assay; conditions: tzm-b1, 72 h
[8] = Cytotoxicity against human TZM-b1 cells at >85 uM after 3 days by XTT assay; conditions: tzm-b1, 72 h
[9] = Cytotoxicity against human TZM-b1 cells at >87 uM after 3 days by XTT assay; conditions: tzm-b1, 72 h
[10] = Cytotoxicity against human TZM-b1 cells at >78.2 uM after 3 days by XTT assay; conditions: tzm-b1, 72 h
MT2 [11] = test: Cytotoxicity against human MT2 cells at >[…] after 4 days by XTT assay; conditions: mt2, 96 h
[12] = Cytotoxicity against human TZM-b1 cells at >22 uM after 3 days by XTT assay; conditions: tzm-b1, 72 h
MT2 [13] = test: Cytotoxicity against human MT2 cells at >62 uM after 4 days by XTT assay; conditions: mt2, 96 h
[14] = Cytotoxicity against human TZM-b1 cells at >75.8 uM after 3 days by XTT assay; conditions: tzm-b1, 72 h
[15] = Cytotoxicity against human TZM-b1 cells at >60 uM after 3 days by XTT assay; conditions: tzm-b1, 72 h
[16] = Cytotoxicity against human TZM-b1 cells at >88 uM after 3 days by XTT assay; conditions: tzm-b1, 72 h
MT2 [17] = test: Cytotoxicity against human MT2 cells at >88 uM after 4 days by XTT assay; conditions: mt2, 96 h
[18] = Cytotoxicity against human TZM-b1 cells at >90 uM after 3 days by XTT assay; conditions: tzm-b1, 72 h
[19] = Cytotoxicity against human TZM-b1 cells at >75.5 uM after 3 days by XTT assay; conditions: tzm-b1, 72 h
[20] = Cytotoxicity against human TZM-b1 cells at >74 uM after 3 days by XTT assay; conditions: tzm-b1, 72 h

Structure (SMILES)	CC50 (MT2 [1]) [µM]	IC50 [2] [µM]	CC50 at 72 h [3] [µM]	IC50 [4] [µM]	further results
Cc1nc(C(NC(=O)C(=O)Nc2ccc(Cl)cc2)C2CCCNC2)sc1CO (mixture of isomers)	> 81	1.4	60.2	12	–
Cc1nc(C(NC(=O)C(=O)Nc2ccc(F)c(Cl)c2)C2CCCCN2)sc1CO (mixture of isomers)	–	6.5	> 77.8	9.5	Activity [5]: 0%
Cc1nc(C(NC(=O)C(=O)Nc2ccc(Cl)cc2)C2CCCN2)sc1CO (mixture of isomers)	–	4.8	–	15.4	CC50 at 96 h [6]: 45 µM; CC50 [3]: 12.4 µM
Cc1nc(C(NC(=O)C(=O)Nc2ccc(F)cc2F)C2CCCCN2)sc1CO (mixture of isomers)	> 110	> 87	> 87	110	–
CC(=O)N1CCCCC1C(NC(=O)C(=O)Nc1ccc(Cl)cc1)c1nc(C)c(CCO)s1 (mixture of isomers)	–	19.7	> 84	> 52	Activity [7]: 20%
CCn1cc(NC(=O)C(=O)Nc2ccc(Cl)cc2)cn1	10.7	5.9	8	11.9	–
CNCC(NC(=O)C(=O)Nc1ccc(Cl)cc1)c1nc(C)c(CCO)s1 (racemic)	> 43	2.8	–	24.3	CC50 [3]: 16.6 µM
CC(=O)c1ccc(NC(=O)C(=O)NC(c2nc(C)c(CCO)s2)C2CCCCN2)cc1 (mixture of isomers)	> 48.3	> 77.3	> 77.3	24.5	–
CC(=O)c1ccc(NC(=O)C(=O)NC(c2nc(C)c(CO)s2)C2CCCCN2)cc1 (mixture of isomers)	> 107	> 86	> 86	107	–
Cc1ccc(NC(=O)C(=O)NC(c2nc(C)c(CO)s2)C2CCCCN2)c(F)c1 (mixture of isomers)	> 109	> 88	> 88	66	–
Cc1nc(C(NC(=O)C(=O)Nc2ccc(F)cc2)C2CCCCN2)sc1CCO (mixture of isomers)	–	22	> 88	21.6	CC50 at 96 h [6]: 109 µM
Cc1nc(C(NC(=O)C(=O)Nc2ccc(Cl)cc2)C2CCCCN2C)sc1CCO (mixture of isomers)	–	1.9	–	28.6	CC50 at 96 h [6]: 88 µM; CC50 [3]: 36 µM
Cc1ccc(NC(=O)C(=O)NC(c2nc(C)c(CCO)s2)C2CCCCN2)cc1F (mixture of isomers)	–	1.66	> 85	3.7	CC50 at 96 h [6]: 85 µM; Activity [8]: 40%
Cc1nc(C(NC(=O)C(=O)NC2CCCCCC2)C2CCCCN2)sc1CO (mixture of isomers)	–	> 90	> 90	39.3	–
Cc1nc(C(NC(=O)C(=O)Nc2ccc(F)c(F)c2)C2CCCCN2)sc1CO (mixture of isomers)	–	8.4	> 87	14	Activity [9]: 0%
Cc1nc(C(NC(=O)C(=O)Nc2ccc(F)c(F)c2)C2CCCCN2)sc1CCO (mixture of isomers)	–	8.2	> 78.2	24.1	Activity [10]: 10%
Cc1nc(C(NC(=O)C(=O)Nc2ccc(Cl)cc2)C2CCCN2)sc1CCO (mixture of isomers)	–	4.2	4.9	16.2	CC50 at 96 h [6]: 42 µM

Structure (SMILES)	CC50 (MT2 [1]) [µM]	IC50 [2] [µM]	CC50 at 72 h [3] [µM]	IC50 [4] [µM]	further results
Cc1nc(C(NC(=O)C(=O)Nc2ccc(Cl)cc2)C2CCCCN2)sc1CO (mixture of isomers)	> 108	4.3	> 22	4.7	Activity (MT2 [11]): 40%; Activity [12]: 10%
Cc1nc(C(NC(=O)C(=O)Nc2ccc(Cl)cc2)C2CCCCN2)sc1CCO (mixture of isomers)	> 62	4.6	–	4.2	Activity (MT2 [13]): 0%; CC50 [3]: 32.8 µM
Cc1nc(C(NC(=O)C(=O)NC2CCCCCC2)C2CCCCN2)sc1CCO (mixture of isomers)	–	> 88	> 88	19.6	CC50 at 96 h [6]: 60 µM
Cc1nc(C(NC(=O)C(=O)Nc2ccc(Cl)cc2)C2CCNCC2)sc1CO (racemic)	> 81	0.83	81	29.8	–
Cc1nc(C(NC(=O)C(=O)Nc2ccc(F)c(Cl)c2)C2CCCCN2)sc1CCO (mixture of isomers)	–	9	> 75.8	19.5	CC50 at 96 h [6]: 94.7 µM; Activity [14]: 20%
CC1(C)CC(NC(=O)C(=O)Nc2ccc(Cl)cc2)CC(C)(C)N1	–	4.2	> 60	8	CC50 at 96 h [6]: 150 µM; Activity [15]: 10%
COC(=O)[C@@H]1C[C@@H](NC(=O)C(=O)Nc2ccc(Cl)cc2)[C@H](c2ccccc2)N1	–	> 99.6	> 99.6	> 24.9	–
Cc1ccc(NC(=O)C(=O)NC(c2nc(C)c(CO)s2)C2CCCCN2)cc1F (mixture of isomers)	–	2.7	> 88	5.3	Activity [16]: 0%; Activity (MT2 [17]): 30%
Cc1nc(C(NC(=O)C(=O)Nc2ccc(Cl)cc2)C2CCNCC2)sc1CCO (racemic)	> 78.5	1	85.4	30.5	–
C[C@@H](NC(=O)C(=O)Nc1ccc(Cl)cc1)[C@H](c1ccccc1)N1CCOCC1	–	> 99.6	> 99.6	> 24.9	–
Cc1nc(C(NC(=O)C(=O)Nc2ccc(Cl)c(F)c2)C2CCCCN2)sc1CO (mixture of isomers)	–	1.6	58.4	3.8	CC50 at 96 h [6]: 77.8 µM
Cc1nc(C(NC(=O)C(=O)Nc2ccc(F)cc2F)C2CCCCN2)sc1CCO (mixture of isomers)	> 105	> 84	> 84	> 105	–
Cc1nc(C(NC(=O)C(=O)Nc2ccc(F)cc2)C2CCCCN2)sc1CO (mixture of isomers)	> 113	7.4	> 90	47.9	Activity [18]: 0%
Cc1nc(C(NC(=O)C(=O)Nc2ccc(C(F)(F)F)cc2)C2CCCCN2)sc1CO (mixture of isomers)	–	10.3	> 75.5	4.6	Activity [19]: 10%
Cc1ccc(NC(=O)C(=O)NC(c2nc(C)c(CCO)s2)C2CCCCN2)c(F)c1 (mixture of isomers)	–	> 78.8	> 78.8	45.8	–
Cc1nc(C(NC(=O)C(=O)Nc2ccc(C(F)(F)F)cc2)C2CCCCN2)sc1CCO (stereo unspecified)	> 39	4.9	> 74	17.4	Activity [20]: 35%
Cc1nc(C(NC(=O)C(=O)Nc2ccc(Cl)cc2)C2CCCNC2)sc1CCO (mixture of isomers)	> 78.5	0.65	59.4	13.1	–
